How the values were obtained:
Assay in all cases: relative viability (nuclei count vs DMSO), 5 days (fraction); higher = more cells survive
BX 795 + Trametinib = compound: O=C(NCCCNc1nc(Nc2cccc(NC(=O)N3CCCC3)c2)ncc1I)c1cccs1 [BX 795] + CC(=O)Nc1cccc(-n2c(=O)n(C3CC3)c(=O)c3c(Nc4ccc(I)cc4F)n(C)c(=O)c(C)c32)c1 [Trametinib] (partner 0.02 µM)
How it was run: (§1)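 Relative viability is defined as nuclei in treated wells over nuclei in vehicle wells. Duplicate plates were run and medians reported. Lung cancer cell lines in 1536-well plates were dosed by pin tool one day after seeding, with one drug or with a fixed anchor-drug dose plus five library-drug doses (not always all listed) in √10 steps, and nuclei were counted after 5 days.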

BX 795 + Tozasertib = compound: O=C(NCCCNc1nc(Nc2cccc(NC(=O)N3CCCC3)c2)ncc1I)c1cccs1 [BX 795] + Cc1cc(Nc2cc(N3CCN(C)CC3)nc(Sc3ccc(NC(=O)C4CC4)cc3)n2)n[nH]1 [Tozasertib] (partner 0.1 µM)
How it was run: as §1

BX 795 + Alpelisib = compound: O=C(NCCCNc1nc(Nc2cccc(NC(=O)N3CCCC3)c2)ncc1I)c1cccs1 [BX 795] + Cc1nc(NC(=O)N2CCC[C@H]2C(N)=O)sc1-c1ccnc(C(C)(C)C(F)(F)F)c1 [Alpelisib] (partner 2 µM)
How it was run: as §1

BX 795 + Phenformin = compound: O=C(NCCCNc1nc(Nc2cccc(NC(=O)N3CCCC3)c2)ncc1I)c1cccs1 [BX 795] + N=C(N)NC(=N)NCCc1ccccc1 [Phenformin] (partner 250 µM)
How it was run: as §1

BX 795 + Olaparib = compound: O=C(NCCCNc1nc(Nc2cccc(NC(=O)N3CCCC3)c2)ncc1I)c1cccs1 [BX 795] + O=C(c1cc(Cc2n[nH]c(=O)c3ccccc23)ccc1F)N1CCN(C(=O)C2CC2)CC1 [Olaparib] (partner 8 µM)
How it was run: as §1

HCC-366
relative viability (BX 795 + Trametinib; first compound 0.04 µM): 0.391 | relative viability (BX 795 + Trametinib; first compound 0.1265 µM): 0.338 | relative viability (BX 795 + Trametinib; first compound 0.4 µM): 0.421 | relative viability (BX 795 + Trametinib; first compound 1.265 µM): 0.32 | relative viability (BX 795 + Tozasertib; first compound 0.04 µM): 0.228 | relative viability (BX 795 + Tozasertib; first compound 0.1265 µM): 0.0924 | relative viability (BX 795 + Tozasertib; first compound 0.4 µM): 0.0936 | relative viability (BX 795 + Tozasertib; first compound 1.265 µM): 0.0708 | relative viability (BX 795 + Alpelisib; first compound 0.04 µM): 0.462 | relative viability (BX 795 + Alpelisib; first compound 0.1265 µM): 0.432 | relative viability (BX 795 + Alpelisib; first compound 0.4 µM): 0.291 | relative viability (BX 795 + Alpelisib; first compound 1.265 µM): 0.113 | relative viability (BX 795 + Phenformin; first compound 0.04 µM): 0.622 | relative viability (BX 795 + Phenformin; first compound 0.1265 µM): 0.629 | relative viability (BX 795 + Phenformin; first compound 0.4 µM): 0.602 | relative viability (BX 795 + Phenformin; first compound 1.265 µM): 0.583 | relative viability (BX 795 + Olaparib; first compound 0.04 µM): 0.336 | relative viability (BX 795 + Olaparib; first compound 0.1265 µM): 0.404 | relative viability (BX 795 + Olaparib; first compound 0.4 µM): 0.175 | relative viability (BX 795 + Olaparib; first compound 1.265 µM): 0.252

LXF-289
relative viability (BX 795 + Trametinib; first compound 0.04 µM): 0.523 | relative viability (BX 795 + Trametinib; first compound 0.1265 µM): 0.67 | relative viability (BX 795 + Trametinib; first compound 0.4 µM): 0.725 | relative viability (BX 795 + Trametinib; first compound 1.265 µM): 0.631 | relative viability (BX 795 + Tozasertib; first compound 0.04 µM): 0.209 | relative viability (BX 795 + Tozasertib; first compound 0.1265 µM): 0.155 | relative viability (BX 795 + Tozasertib; first compound 0.4 µM): 0.154 | relative viability (BX 795 + Tozasertib; first compound 1.265 µM): 0.142 | relative viability (BX 795 + Alpelisib; first compound 0.04 µM): 1.06 | relative viability (BX 795 + Alpelisib; first compound 0.1265 µM): 1.04 | relative viability (BX 795 + Alpelisib; first compound 0.4 µM): 1.11 | relative viability (BX 795 + Alpelisib; first compound 1.265 µM): 0.693 | relative viability (BX 795 + Phenformin; first compound 0.04 µM): 0.464 | relative viability (BX 795 + Phenformin; first compound 0.1265 µM): 0.529 | relative viability (BX 795 + Phenformin; first compound 0.4 µM): 0.582 | relative viability (BX 795 + Phenformin; first compound 1.265 µM): 0.467 | relative viability (BX 795 + Olaparib; first compound 0.04 µM): 1.06 | relative viability (BX 795 + Olaparib; first compound 0.1265 µM): 1.04 | relative viability (BX 795 + Olaparib; first compound 0.4 µM): 1.2 | relative viability (BX 795 + Olaparib; first compound 1.265 µM): 0.81

NCI-H2023
relative viability (BX 795 + Trametinib; first compound 0.04 µM): 0.797 | relative viability (BX 795 + Trametinib; first compound 0.1265 µM): 0.468 | relative viability (BX 795 + Trametinib; first compound 0.4 µM): 0.456 | relative viability (BX 795 + Trametinib; first compound 1.265 µM): 0.233 | relative viability (BX 795 + Tozasertib; first compound 0.04 µM): 0.316 | relative viability (BX 795 + Tozasertib; first compound 0.1265 µM): 0.295 | relative viability (BX 795 + Tozasertib; first compound 0.4 µM): 0.215 | relative viability (BX 795 + Tozasertib; first compound 1.265 µM): 0.139 | relative viability (BX 795 + Alpelisib; first compound 0.04 µM): 0.543 | relative viability (BX 795 + Alpelisib; first compound 0.1265 µM): 0.575 | relative viability (BX 795 + Alpelisib; first compound 0.4 µM): 0.45 | relative viability (BX 795 + Alpelisib; first compound 1.265 µM): 0.352 | relative viability (BX 795 + Phenformin; first compound 0.04 µM): 0.426 | relative viability (BX 795 + Phenformin; first compound 0.1265 µM): 0.378 | relative viability (BX 795 + Phenformin; first compound 0.4 µM): 0.305 | relative viability (BX 795 + Phenformin; first compound 1.265 µM): 0.195 | relative viability (BX 795 + Olaparib; first compound 0.04 µM): 0.461 | relative viability (BX 795 + Olaparib; first compound 0.1265 µM): 0.494 | relative viability (BX 795 + Olaparib; first compound 0.4 µM): 0.403 | relative viability (BX 795 + Olaparib; first compound 1.265 µM): 0.26

NCI-H2347
relative viability (BX 795 + Trametinib; first compound 0.04 µM): 0.282 | relative viability (BX 795 + Trametinib; first compound 0.1265 µM): 0.239 | relative viability (BX 795 + Trametinib; first compound 0.4 µM): 0.29 | relative viability (BX 795 + Trametinib; first compound 1.265 µM): 0.275 | relative viability (BX 795 + Tozasertib; first compound 0.04 µM): 0.817 | relative viability (BX 795 + Tozasertib; first compound 0.1265 µM): 0.64 | relative viability (BX 795 + Tozasertib; first compound 0.4 µM): 0.603 | relative viability (BX 795 + Tozasertib; first compound 1.265 µM): 0.441 | relative viability (BX 795 + Alpelisib; first compound 0.04 µM): 1.19 | relative viability (BX 795 + Alpelisib; first compound 0.1265 µM): 1 | relative viability (BX 795 + Alpelisib; first compound 0.4 µM): 1.11 | relative viability (BX 795 + Alpelisib; first compound 1.265 µM): 0.892 | relative viability (BX 795 + Phenformin; first compound 0.04 µM): 0.475 | relative viability (BX 795 + Phenformin; first compound 0.1265 µM): 0.466 | relative viability (BX 795 + Phenformin; first compound 0.4 µM): 0.555 | relative viability (BX 795 + Phenformin; first compound 1.265 µM): 0.391 | relative viability (BX 795 + Olaparib; first compound 0.04 µM): 0.679 | relative viability (BX 795 + Olaparib; first compound 0.1265 µM): 0.658 | relative viability (BX 795 + Olaparib; first compound 0.4 µM): 0.646 | relative viability (BX 795 + Olaparib; first compound 1.265 µM): 0.515

LCLC-103H
relative viability (BX 795 + Trametinib; first compound 0.04 µM): 0.578 | relative viability (BX 795 + Trametinib; first compound 0.1265 µM): 0.681 | relative viability (BX 795 + Trametinib; first compound 0.4 µM): 0.712 | relative viability (BX 795 + Trametinib; first compound 1.265 µM): 0.651 | relative viability (BX 795 + Tozasertib; first compound 0.04 µM): 0.476 | relative viability (BX 795 + Tozasertib; first compound 0.1265 µM): 0.475 | relative viability (BX 795 + Tozasertib; first compound 0.4 µM): 0.477 | relative viability (BX 795 + Tozasertib; first compound 1.265 µM): 0.379 | relative viability (BX 795 + Alpelisib; first compound 0.04 µM): 0.944 | relative viability (BX 795 + Alpelisib; first compound 0.1265 µM): 1.1 | relative viability (BX 795 + Alpelisib; first compound 0.4 µM): 1.05 | relative viability (BX 795 + Alpelisib; first compound 1.265 µM): 1.01 | relative viability (BX 795 + Phenformin; first compound 0.04 µM): 0.301 | relative viability (BX 795 + Phenformin; first compound 0.1265 µM): 0.327 | relative viability (BX 795 + Phenformin; first compound 0.4 µM): 0.355 | relative viability (BX 795 + Phenformin; first compound 1.265 µM): 0.298 | relative viability (BX 795 + Olaparib; first compound 0.04 µM): 0.794 | relative viability (BX 795 + Olaparib; first compound 0.1265 µM): 0.73 | relative viability (BX 795 + Olaparib; first compound 0.4 µM): 0.761 | relative viability (BX 795 + Olaparib; first compound 1.265 µM): 0.763

SW 1573
relative viability (BX 795 + Trametinib; first compound 0.04 µM): 0.725 | relative viability (BX 795 + Trametinib; first compound 0.1265 µM): 0.642 | relative viability (BX 795 + Trametinib; first compound 0.4 µM): 0.753 | relative viability (BX 795 + Trametinib; first compound 1.265 µM): 0.232 | relative viability (BX 795 + Tozasertib; first compound 0.04 µM): 0.209 | relative viability (BX 795 + Tozasertib; first compound 0.1265 µM): 0.185 | relative viability (BX 795 + Tozasertib; first compound 0.4 µM): 0.142 | relative viability (BX 795 + Tozasertib; first compound 1.265 µM): 0.155 | relative viability (BX 795 + Alpelisib; first compound 0.04 µM): 0.766 | relative viability (BX 795 + Alpelisib; first compound 0.1265 µM): 0.734 | relative viability (BX 795 + Alpelisib; first compound 0.4 µM): 1.01 | relative viability (BX 795 + Alpelisib; first compound 1.265 µM): 0.674 | relative viability (BX 795 + Phenformin; first compound 0.04 µM): 0.396 | relative viability (BX 795 + Phenformin; first compound 0.1265 µM): 0.351 | relative viability (BX 795 + Phenformin; first compound 0.4 µM): 0.34 | relative viability (BX 795 + Phenformin; first compound 1.265 µM): 0.18 | relative viability (BX 795 + Olaparib; first compound 0.04 µM): 0.673 | relative viability (BX 795 + Olaparib; first compound 0.1265 µM): 0.531 | relative viability (BX 795 + Olaparib; first compound 0.4 µM): 0.669 | relative viability (BX 795 + Olaparib; first compound 1.265 µM): 0.238

NCI-H2170
relative viability (BX 795 + Trametinib; first compound 0.04 µM): 0.948 | relative viability (BX 795 + Trametinib; first compound 0.1265 µM): 0.945 | relative viability (BX 795 + Trametinib; first compound 0.4 µM): 0.93 | relative viability (BX 795 + Trametinib; first compound 1.265 µM): 0.951 | relative viability (BX 795 + Tozasertib; first compound 0.04 µM): 0.724 | relative viability (BX 795 + Tozasertib; first compound 0.1265 µM): 0.731 | relative viability (BX 795 + Tozasertib; first compound 0.4 µM): 0.74 | relative viability (BX 795 + Tozasertib; first compound 1.265 µM): 0.712 | relative viability (BX 795 + Alpelisib; first compound 0.04 µM): 0.859 | relative viability (BX 795 + Alpelisib; first compound 0.1265 µM): 0.92 | relative viability (BX 795 + Alpelisib; first compound 0.4 µM): 0.864 | relative viability (BX 795 + Alpelisib; first compound 1.265 µM): 0.751 | relative viability (BX 795 + Phenformin; first compound 0.04 µM): 0.46 | relative viability (BX 795 + Phenformin; first compound 0.1265 µM): 0.383 | relative viability (BX 795 + Phenformin; first compound 0.4 µM): 0.446 | relative viability (BX 795 + Phenformin; first compound 1.265 µM): 0.413 | relative viability (BX 795 + Olaparib; first compound 0.04 µM): 0.597 | relative viability (BX 795 + Olaparib; first compound 0.1265 µM): 0.681 | relative viability (BX 795 + Olaparib; first compound 0.4 µM): 0.538 | relative viability (BX 795 + Olaparib; first compound 1.265 µM): 0.487

— the supplement of paper PMC10307832
